system: HBV cccDNA (HBeAg level) in HepDES19 cells; test: Engineered HepDES19 primary screen assay (HBeAg as surrogate marker for cccDNA); format: cell-based; conditions: Hepatitis B virus, HepDES19, 120 h
Description: The assay was employed to screen for novel cccDNA inhibitors. HepDES19 is a cccDNA-producing cell line. In this cell line, HBeAg in the cell culture supernatant as surrogate marker, as HBeAg production depends on cccDNA level and activity. HepDES19 is an engineered cell line which contains a 1.1 unit length HBV genome, and pgRNA transcription from the transgene is controlled by Tetracycline (Tet). In the absence of Tet, pgRNA transcription will be induced, but HBV e antigen (HBeAg) could not be produced from this pgRNA due to very short leader sequence before the HBeAg start codon and the start codon is disrupted. Only after cccDNA is formed, the missing leader sequence and start codon mutation would be restored from the 3′-terminal redundancy of pgRNA, and then HBeAg could be synthesized. Therefore, HBeAg could be used as a surrogate marker for cccDNA (Zhou, T. et al., Antiviral Res. (2006), 72(2), 116-124; Guo, H. et al., J. Virol. (2007), 81(22), 12472-12484).
HepDES19 cells were seeded at 2×10^6 cells per T150 flask and cultured with the culture medium (Dulbecco's Modified Eagle Medium: Nutrient Mixture F-12 [DMEM-F12, Gibco Cat. 11320-82], 10% Fetal Bovine Serum [FBS, Clontech Cat. 631101], 0.1 mM Non-Essential Amino Acids Solution [NEAA, Gibco Cat. 11140-050], 50 μg/mL Penicillin-Streptomycin [PS, Invitrogen Cat. 15140-163], 500 μg/mL Geneticin [G418, Invitrogen Cat. 10131-027]) containing 3 μg/mL Tet (Sigma, Cat. 87128) for 5 days. Cells were then seeded at 4×10^6 cells per T150 in the same culture medium as described above in the absence of Tet for 8 days. Cells were then harvested and frozen at density of 2×10^6 cells per mL. For compound testing, the frozen cells were thawed and seeded into 96-well plates at a density of 6×10^4 cells per well. At 24 hours after seeding, half log serial dilutions of compounds made with Dimethyl sulfoxide (DMSO, Sigma, Cat. D2650) were further diluted with the same culture medium as described above before they were added to the cells to reach desired final compound concentrations and 1% DMSO concentration. Plates were then incubated at 37° C. for another 5 days before measurement of HBeAg level and cell viability. Intracellular HBeAg level were measured with enzyme-linked immunosorbent assay (ELISA) kit (Shanghai Kehua Diagnostic Medical Products Co., Ltd). Cell viability was assessed using Cell Counting Kit-8 (Donjindo, Cat. CK04-20). IC50 values were derived from the dose-response curve using 4 parameter logistic curve fit method.
The compounds of the present invention were tested for their capacity to inhibit extracellular HBeAg level as described herein.

| SMILES | IC50 [µM] |
| --- | --- |
| Cc1cc(Cl)ccc1NC(=O)c1cc(=O)c2cccc(Cl)c2o1 [Example 8, 8-chloro-N-(4-chloro-2-methylphenyl)-4-oxo-chromene-2-carboxamide] | 0.32 |
| O=C(O)CCCOc1cc(Cl)ccc1NC(=O)c1cc(=O)c2cc(Cl)cc(Cl)c2o1 [Example 11, 4-(5-chloro-2-(6,8-dichloro-4-oxo-chromene-2-carboxamido)phenoxy)butanoic Acid] | 3.12 |
| O=C(c1cc(=O)c2cccc(Cl)c2o1)N1CCc2cc(Br)ccc2C1 [Example 17, 2-(6-bromo-1,2,3,4-tetrahydroisoquinoline-2-carbonyl)-8-chloro-chromen-4-one] | 10.8 |
| O=C(O)COc1cc(Cl)ccc1NC(=O)c1cc(=O)c2cccc(Cl)c2o1 [Example 20, 2-(5-chloro-2-(8-chloro-4-oxo-chromene-2-carboxamido)phenoxy)acetic Acid] | 50 |
| COC(=O)c1ccc(C)c(NC(=O)c2cc(=O)c3cccc(Cl)c3o2)c1 [Example 21, Methyl 3-(8-chloro-4-oxo-chromene-2-carboxamido)-4-methylbenzoate] | 11 |
| O=C(O)COCCOc1cc(Cl)ccc1NC(=O)c1cc(=O)c2cc(Cl)cc(Cl)c2o1 [Example 22, 2-(2-(5-chloro-2-(6,8-dichloro-4-oxo-chromene-2-carboxamido)phenoxy)ethoxy)acetic Acid] | 11.9 |
| Cc1cc(NC(=O)c2cc(=O)c3cccc(Cl)c3o2)ncc1Br [Example 23, N-(5-bromo-4-methylpyridin-2-yl)-8-chloro-4-oxo-chromene-2-carboxamide] | 11.9 |
| O=C(O)COCCOc1cc(Cl)ccc1NC(=O)c1cc(=O)c2cccc(Cl)c2o1 [Example 24, 2-(2-(5-chloro-2-(8-chloro-4-oxo-chromene-2-carboxamido)phenoxy)ethoxy)acetic Acid] | 13.9 |
| COC(=O)c1cc(Cl)ccc1NC(=O)c1cc(=O)c2cccc(Cl)c2o1 [Example 25, Methyl 5-chloro-2-(8-chloro-4-oxo-chromene-2-carboxamido)benzoate] | 16.2 |
| COC(=O)c1ccc(CNC(=O)c2cc(=O)c3cccc(Cl)c3o2)cc1 [Example 26, Methyl 4-((8-chloro-4-oxo-chromene-2-carboxamido)methyl)benzoate] | 20.6 |
| COC(=O)c1ccc(NC(=O)c2cc(=O)c3cccc(Cl)c3o2)c(C)c1 [Example 27, Methyl 4-(8-chloro-4-oxo-chromene-2-carboxamido)-3-methylbenzoate] | 23.4 |
| O=C(c1cc(=O)c2cccc(Cl)c2o1)N1CCc2cccc(Cl)c2C1 [Example 28, 8-chloro-2-(8-chloro-3,4-dihydro-1H-isoquinoline-2-carbonyl)chromen-4-one] | 24.3 |
| CC(NC(=O)c1cc(=O)c2cccc(Cl)c2o1)c1ccc(Br)cc1 (stereo not drawn) [Example 29, N-(1-(4-bromophenyl)ethyl)-8-chloro-4-oxo-chromene-2-carboxamide] | 24.9 |
| Cc1cc(O)ccc1NC(=O)c1cc(=O)c2cccc(Cl)c2o1 [Example 30, 8-chloro-N-(4-hydroxy-2-methylphenyl)-4-oxo-chromene-2-carboxamide] | 25.9 |
| O=C(c1cc(=O)c2cccc(Cl)c2o1)N1Cc2cccc(Br)c2C1 [Example 31, 2-(4-bromoisoindoline-2-carbonyl)-8-chloro-chromen-4-one] | 26.8 |
| COc1cc(Br)cnc1NC(=O)c1cc(=O)c2cccc(Cl)c2o1 [Example 32, N-(5-bromo-3-methoxypyridin-2-yl)-8-chloro-4-oxo-chromene-2-carboxamide] | 33.7 |
| O=C(c1cc(=O)c2cccc(Cl)c2o1)N1CCCc2ccc([N+](=O)[O-])cc21 [Example 33, 8-chloro-2-(7-nitro-3,4-dihydro-2H-quinoline-1-carbonyl)chromen-4-one] | 35.3 |

| SMILES | IC50 [µM] |
| --- | --- |
| O=C(Nc1ccc(Cl)cc1OCCOC1CC(C(=O)O)C1)c1cc(=O)c2cccc(Cl)c2o1 (stereo not drawn) [Example 34, 3-(2-(5-chloro-2-(8-chloro-4-oxo-chromene-2-carboxamido)phenoxy)ethoxy)cyclobutane-1-carboxylic Acid] | 44.6 |
| CCOC(=O)c1nnc(NC(=O)c2cc(=O)c3cccc(Cl)c3o2)s1 [Example 35, Ethyl 5-(8-chloro-4-oxo-chromene-2-carboxamido)-1,3,4-thiadiazole-2-carboxylate] | 44.6 |
| COC(=O)c1cccc(COC2CC3CCC(C2)N3c2cc(=O)c3cccc(Cl)c3o2)c1 (stereo not drawn) [Example 41, Methyl 3-(((8-(8-chloro-4-oxo-chromen-2-yl)-8-azabicyclo[3.2.1]octan-3-yl)oxy)methyl)benzoate] | 3.99 |
| COc1ccc(CNc2oc3c(Cl)cccc3c(=O)c2I)cc1 [Example 42, 8-chloro-3-iodo-2-((4-methoxybenzyl)amino)-chromen-4-one] | 4.34 |
| COc1ccc2c(c1)CN(c1cc(=O)c3cccc(Cl)c3o1)C2=O [Example 43, 2-(8-chloro-4-oxo-chromen-2-yl)-5-methoxyisoindolin-1-one] | 4.78 |
| COc1ccc2c(c1)CCN(c1cc(=O)c3cccc(Cl)c3o1)C2=O [Example 44, 2-(8-chloro-4-oxo-chromen-2-yl)-6-methoxy-3,4-dihydroisoquinolin-1-one] | 5.44 |
| O=c1cc(N2CCN(c3ccccc3)CC2)oc2c(Cl)cc(F)cc12 [Example 45, 8-chloro-6-fluoro-2-(4-phenylpiperazin-1-yl)-chromen-4-one] | 8.58 |
| O=c1c(I)c(-n2ccc(OCc3ccccc3)cc2=O)oc2c(Cl)cccc12 [Example 46, 4-benzyloxy-1-(8-chloro-3-iodo-4-oxo-chromen-2-yl)pyridin-2-one] | 9.66 |
| O=c1cc(N2CC3(CC(O)C3)C2)oc2c(Cl)cccc12 [Example 47, 8-chloro-2-(6-hydroxy-2-azaspiro[3.3]heptan-2-yl)chromen-4-one] | 10.7 |
| COc1ccc(CN(C)c2cc(=O)c3cccc(Cl)c3o2)cc1 [Example 48, 8-chloro-2-((4-methoxybenzyl)(methyl)amino)-chromen-4-one] | 12.1 |
| O=c1cc(N2CCC(c3ccccc3)CC2)oc2c(Cl)cc(F)cc12 [Example 49, 8-chloro-6-fluoro-2-(4-phenylpiperidin-1-yl)-chromen-4-one] | 12.4 |
| O=C(O)C1CC(OCCOc2ccc(C3CCN(c4cc(=O)c5cc(F)cc(Cl)c5o4)CC3)cc2)C1 (stereo not drawn) [Example 50, 3-(2-(4-(1-(8-chloro-6-fluoro-4-oxo-chromen-2-yl)piperidin-4-yl)phenoxy)ethoxy)cyclobutane-1-carboxylic Acid] | 14.1 |
| O=c1cc(N2C3CCC2CC(O)C3)oc2c(Cl)cccc12 (stereo not drawn) [Example 51, 8-chloro-2-(3-hydroxy-8-azabicyclo[3.2.1]octan-8-yl)-chromen-4-one] | 14.8 |
| COc1ccc(CNc2cc(=O)c3cccc(Cl)c3o2)cc1 [Example 52, 8-chloro-2-((4-methoxybenzyl)amino)-chromen-4-one] | 15 |
| COC(=O)c1cccc(N2CCN(c3cc(=O)c4cccc(Cl)c4o3)CC2)c1 [Example 53, Methyl 3-(4-(8-chloro-4-oxo-chromen-2-yl)piperazin-1-yl)benzoate] | 15 |
| COC(=O)C1CC(OCCOc2ccc3c(c2)C(=O)N(c2cc(=O)c4cccc(Cl)c4o2)C3)C1 (stereo not drawn) [Example 54, Methyl 3-(2-((2-(8-chloro-4-oxo-chromen-2-yl)-3-oxoisoindolin-5-yl)oxy)ethoxy)cyclobutanecarboxylate] | 16 |

Reference: patent publication US11993591B2, “Chromen-4-one derivatives for the treatment and prophylaxis of hepatitis B virus disease” (Hoffmann-La Roche Inc., priority 2018, dated 2024)
